Results on 32 molecules are retold here after patent US12358915B2, “METTL3 inhibitory compounds” (STORM THERAPEUTICS LTD., priority 2019, dated 2025).

Usually IC50 stands for the midpoint of a concentration-inhibition curve.

Read-outs that look alike come from different tables or passages of the source.

The experiment concerns the target T1, METTL3/14 (Homo sapiens, UniProt Q86U44).
T1 construct: The enzyme used was full-length his-tagged METTL3; His; made in house
The experiment in a line: METTL3/14 methyltransferase assay (METTL3_14 RFMS, RapidFire mass spectrometry).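 Also: recombinant His-tagged METTL3 with FLAG-tagged METTL14 from baculovirus, SAH product quantified by mass spectrometry against isotope-labelled internal standards, 60 min at room temperature, scaled between no-RNA and DMSO-only wells.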 It counts as biochemical.

Setting [1] is: 5 nM METTL3/14, 0.2 μM RNA substrate, 0.5 μM SAM, lower limit of the assay IC50=5 nM, Compounds 63-265, read-out: METTL3_14 RFMS IC50.
Where [2] appears, read: 5 nM METTL3/14, 0.2 μM RNA substrate, 0.5 μM SAM, lower limit of the assay IC50=5 nM, Compounds 1-62, read-out: METTL3_14 RFMS IC50.
Where [3] appears, read: 5 nM METTL3/14, 0.2 μM RNA substrate, 0.5 μM SAM, lower limit of the assay IC50=5 nM, Compounds 266-351, read-out: METTL3_14 RFMS IC50.

T1 sequence (Q86U44 whole entry): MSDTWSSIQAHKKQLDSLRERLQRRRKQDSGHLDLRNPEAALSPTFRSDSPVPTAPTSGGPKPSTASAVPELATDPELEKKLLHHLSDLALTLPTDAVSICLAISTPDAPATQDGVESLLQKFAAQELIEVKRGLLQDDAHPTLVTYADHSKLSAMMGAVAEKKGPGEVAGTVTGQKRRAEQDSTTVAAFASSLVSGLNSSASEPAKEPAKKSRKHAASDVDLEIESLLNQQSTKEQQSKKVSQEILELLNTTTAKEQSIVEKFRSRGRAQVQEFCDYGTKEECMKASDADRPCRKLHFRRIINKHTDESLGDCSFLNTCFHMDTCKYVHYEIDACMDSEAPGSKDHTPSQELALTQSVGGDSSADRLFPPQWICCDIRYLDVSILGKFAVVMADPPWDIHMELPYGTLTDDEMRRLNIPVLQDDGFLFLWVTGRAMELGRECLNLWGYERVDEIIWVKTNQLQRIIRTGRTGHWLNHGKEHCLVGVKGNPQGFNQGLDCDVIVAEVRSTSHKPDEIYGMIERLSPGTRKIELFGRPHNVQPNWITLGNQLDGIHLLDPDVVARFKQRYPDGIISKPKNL
T1 sequence (Q9HCE5 whole entry partner): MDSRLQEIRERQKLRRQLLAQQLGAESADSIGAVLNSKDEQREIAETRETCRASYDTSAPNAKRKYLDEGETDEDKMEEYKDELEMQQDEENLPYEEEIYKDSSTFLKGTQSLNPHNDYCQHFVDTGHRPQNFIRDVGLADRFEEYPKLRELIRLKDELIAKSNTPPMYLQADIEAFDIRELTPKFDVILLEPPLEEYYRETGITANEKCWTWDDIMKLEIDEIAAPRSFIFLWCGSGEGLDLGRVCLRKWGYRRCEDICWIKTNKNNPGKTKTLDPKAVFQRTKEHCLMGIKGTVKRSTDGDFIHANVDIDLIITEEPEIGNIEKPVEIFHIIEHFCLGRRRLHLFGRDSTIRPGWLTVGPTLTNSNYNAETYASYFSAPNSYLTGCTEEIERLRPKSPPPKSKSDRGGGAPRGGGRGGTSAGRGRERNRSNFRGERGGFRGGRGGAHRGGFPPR

For the molecule `O=C(NCc1cn2cc(CN3CCC(F)(F)CC3)ccc2n1)c1cc(=O)n2ccccc2n1` [Compound 129, N-({6-[(4,4-difluoropiperidin-1-yl)methyl]imidazo [1,2-a]pyridin-2-yl}methyl)-4-oxo-4H-pyrido[1,2-a]pyrimidine-2-carboxamide], under setting [1], the half-maximal inhibitory concentration (IC50) was 84.3 nM.
`O=C(NCc1cn2cc(CNCCO)ccc2n1)c1cccc2[nH]ncc12` [Compound 45]: the concentration for half-maximal inhibition (IC50) under setting [2] is 2580 nM.
Consider `O=C(NCc1cn2cc(CO)ccc2n1)c1cc(=O)n2ccccc2n1` [Compound 61, N-{[6-(hydroxymethyl)imidazo[1,2-a]pyridin-2-yl]methyl}-4-oxo-4H-pyrido[1,2-a]pyrimidine-2-carboxamide], for which, under setting [2], the IC50 is 695 nM.
On to `Cc1ccn2cc(CNC(=O)c3cc(Br)cc4[nH]ncc34)nc2c1` [Compound 11, 6-bromo-N-({7-methylimidazo[1,2-a]pyridin-2-yl}methyl)-1H-indazole-4-carboxamide], for which the IC50 under setting [2] was 4100 nM.
As for `O=C(NCc1cn2cc(CNC[C@H](O)C(F)(F)F)ccc2n1)c1cc(=O)n2ccccc2n1` [Compound 125, 4-oxo-N-{[6-({[(2S)-3,3,3-trifluoro-2-hydroxypropyl]amino}methyl)imidazo[1,2-a]pyridin-2-yl]methyl}-4H-pyrido[1,2-a] pyrimidine-2-carboxamide], under setting [1], the half-maximal inhibitory concentration (IC50) stood at 221 nM.
The same measure, in the same setting: as for `CC(C)(C)C1CCN(Cc2ccc3nc(CNC(=O)c4cc(=O)n5ccccc5n4)cn3c2)CC1` [Compound 161, N-({6-[(4-tert-butylpiperidin-1-yl)methyl]imidazo[1,2-a]pyridin-2-yl}methyl)-4-oxo-4H-pyrido[1,2-a]pyrimidine-2-carboxamide], the figure is 99.1 nM.
With `Cc1ccc2nc(Cc3nnc(-c4cccc5[nH]ncc45)o3)cn2c1` [Compound 62, 2-(1H-indazol-4-yl)-5-[(6-methylimidazo[1,2-a]pyridin-2-yl)methyl]-1,3,4-oxadiazole], the 50% inhibitory concentration (IC50) under setting [2] amounted to 8760 nM.
For the molecule `COc1ccn2cc(CNC(=O)c3cc(=O)n4ccccc4n3)nc2c1` [Compound 25, N-({7-methoxyimidazo[1,2-a]pyridin-2-yl}methyl)-4-oxo-4H-pyrido[1,2-a]pyrimidine-2-carboxamide], the IC50 under setting [2] stood at 543 nM.
Regarding `O=C(NCc1cn2cc(CNCc3cccc(F)c3)ccc2n1)c1cc(=O)n2ccccc2n1` [Compound 79, N-{[6-({[(3-fluorophenyl)methyl]amino}methyl)imidazo[1,2-a]pyridin-2-yl]methyl}-4-oxo-4H-pyrido [1,2-a]pyrimidine-2-carboxamide], the IC50 under setting [1] is 62.5 nM.
On to `O=C(NCc1cn2cc(CNCC3CC34CC4)ccc2n1)c1cc(=O)n2ccccc2n1` (stereo not shown) [Compound 140], for which, under setting [1], the half-inhibitory concentration (IC50) is 18.7 nM.
Turning to `O=C(NCc1cn2cc(CN3CCc4ccccc4C3)ccc2n1)c1cc(=O)n2ccccc2n1` [Compound 131, 4-oxo-N-({6-[(1,2,3,4-tetrahydroisoquinolin-2-yl)methyl]imidazo [1,2-a]pyridin-2-yl}methyl)-4H-pyrido [1,2-a]pyrimidine-2-carboxamide], the half-maximal inhibitory concentration (IC50) under setting [1] came out at 87.7 nM.
Regarding `O=C(NCc1cn2cc(CNCCCc3ccccc3)ccc2n1)c1cc(=O)n2ccccc2n1` [Compound 55, 4-oxo-N-[(6-{[(3-phenylpropyl)amino]methyl}imidazo[1,2-a]pyridin-2-yl)methyl]-4H-pyrido[1,2-a]pyrimidine-2-carboxamide], the concentration for half-maximal inhibition (IC50) turned out to be 87 nM under setting [2] and 66 nM (read-out: IC50).
Regarding `COC(=O)C(NCc1ccc2nc(CNC(=O)c3cc(=O)n4ccccc4n3)cn2c1)C(C)C` (stereo not shown) [Compound 123, methyl 3-methyl-2-[({2-[({4-oxo-4H-pyrido[1,2-a]pyrimidin-2-yl}formamido)methyl]imidazo [1,2-a]pyridin-6-yl}methyl)amino] butanoate], the 50% inhibitory concentration (IC50) under setting [1] was found to be 332 nM.
For `CC1(C)COC(CNCc2ccc3nc(CNC(=O)c4cc(=O)n5ccccc5n4)cn3c2)C1` (stereo not shown) [Compound 147, N-{[6-({[(4,4-dimethyloxolan-2-yl)methyl]amino}methyl)imidazo[1,2-a]pyridin-2-yl]methyl}-4-oxo-4H-pyrido[1,2-a] pyrimidine-2-carboxamide], the IC50 under setting [1] came to 224 nM.
For `CC(=O)NCc1ccc2nc(CNC(=O)c3cccc4[nH]ncc34)cn2c1` [Compound 40, N-{[6-(acetamidomethyl)imidazo[1,2-a]pyridin-2-yl]methyl}-1H-indazole-4-carboxamide], the half-inhibitory concentration (IC50) under setting [2] was 7390 nM.
Regarding `O=C(NCc1cn2cc(C3CNCCN3)ccc2n1)c1cc(=O)n2ccccc2n1` (stereo not shown) [Example 333, 4-oxo-N-[(6-piperazin-2-ylimidazo[1,2-a]pyridin-2-yl)methyl]pyrido[1,2-a]pyrimidine-2-carboxamide], the IC50 under setting [3] stood at 1230 nM.
For the molecule `O=C(NCc1cn2cc(CNCC3CC3)ccc2n1)c1cc(=O)n2ccccc2n1` [Compound 84, N-[(6-{[(cyclopropyl-methyl)amino]methyl}imidazo [1,2-a]pyridin-2-yl)methyl]-4-oxo-4H-pyrido [1,2-a]pyrimidine-2-carboxamide], under setting [1], the IC50 was 36.5 nM.
In the case of `O=C(NCc1cn2cc(CNCc3ccccc3)ccc2n1)c1cc(=O)c2ccccc2o1` [Compound 221, N-({6-[(benzylamino)methyl]imidazo[1,2-a]pyridin-2-yl}methyl)-4-oxo-4H-chromene-2-carboxamide], the half-maximal inhibitory concentration (IC50) under setting [1] amounted to 46.7 nM.
Regarding `O=C(NCc1cn2cc(CNCc3ccc(F)cc3)ccc2n1)c1cc(=O)n2ccccc2n1` [Compound 80, N-{[6-({[(4-fluorophenyl)methyl]amino}methyl)imidazo [1,2-a]pyridin-2-yl]methyl}-4-oxo-4H-pyrido[1,2-a]pyrimidine-2-carboxamide], the half-maximal inhibitory concentration (IC50) under setting [1] was 16.5 nM.
With `NCc1ccc2nc(CNC(=O)c3cc(=O)n4ccccc4n3)cn2c1` [Compound 50, N-{[6-(aminomethyl)imidazo[1,2-a]pyridin-2-yl]methyl}-4-oxo-4H-pyrido[1,2-a]pyrimidine-2-carboxamide], the IC50 under setting [2] was 272 nM.
As to `O=C(NCc1cn2cc(CN3CC4CCC3CC4)ccc2n1)c1cc(=O)n2ccccc2n1` [Compound 351, N-{[6-({2-azabicyclo[2.2.2]octan-2-yl}methyl)imidazo[1,2-a]pyridin-2-yl]methyl}-4-oxo-4H-pyrido[1,2-a]pyrimidine-2-carboxamide], the IC50 under setting [3] is 24.1 nM.
For the molecule `O=C(NCc1cn2cc(CNCC3CC4C=CC3C4)ccc2n1)c1cc(=O)n2ccccc2n1` (stereo not shown) [Compound 346, N-[(6-{[({bicyclo[2.2.1]hept-5-en-2-yl}methyl)amino]methyl}imidazo[1,2-a]pyridin-2-yl)methyl]-4-oxo-4H-pyrido[1,2-a]pyrimidine-2-carboxamide], under setting [3], the IC50 came out at 7.68 nM.
As to `CC(=O)N1CCN(Cc2ccc3nc(CNC(=O)c4cc(=O)n5ccccc5n4)cn3c2)CC1` [Compound 167, N-({6-[(4-acetylpiperazin-1-yl)methyl]imidazo[1,2-a]pyridin-2-yl}methyl)-4-oxo-4H-pyrido[1,2-a]pyrimidine-2-carboxamide], under setting [1], the 50% inhibitory concentration (IC50) is 8070 nM.
With `O=C(NCc1cn2cc(CNC3CC3)ccc2n1)c1cc(=O)n2ccccc2n1` [Compound 109, N-({6-[(cyclopropyl-amino)methyl]imidazo[1,2-a]pyridin-2-yl}methyl)-4-oxo-4H-pyrido[1,2-a] pyrimidine-2-carboxamide], the IC50 under setting [1] is 350 nM.
With `CC1(C)CC(CNCc2ccc3nc(CNC(=O)c4cc(=O)n5ccccc5n4)cn3c2)C1` [Compound 291, N-[[6-[[(3,3-dimethylcyclobutyl)methylamino]methyl]imidazo[1,2-a]pyridin-2-yl]methyl]-4-oxo-pyrido[1,2-a]pyrimidine-2-carboxamide], under setting [3], the IC50 is 62.2 nM.
As for `O=C(NCc1cn2cc(CN3CCCCC3)ccc2n1)c1cc(=O)c2ccccc2o1` [Compound 219, 4-oxo-N-({6-[(piperidin-1-yl)methyl]imidazo[1,2-a]pyridin-2-yl}methyl)-4H-chromene-2-carboxamide], under setting [1], the IC50 was found to be 247 nM.
For `O=C(NCc1cn2cc(CNCCC3CCCC3)ccc2n1)c1cc(=O)n2ccccc2n1` [Compound 163, N-[(6-{[(2-cyclopentylethyl)amino]methyl}imidazo[1,2-a]pyridin-2-yl)methyl]-4-oxo-4H-pyrido[1,2-a]pyrimidine-2-carboxamide], under setting [1], the IC50 was 80.1 nM.
Turning to `CC(C)(F)CNCc1ccc2nc(CNC(=O)c3cc(=O)n4ccccc4n3)cn2c1` [Compound 202, N-[(6-{[(2-fluoro-2-methylpropyl)amino]methyl}imidazo[1,2-a]pyridin-2-yl)methyl]-4-oxo-4H-pyrido[1,2-a] pyrimidine-2-carboxamide], the IC50 under setting [1] was determined as 61.1 nM.
For `COc1ccn2c(=O)cc(C(=O)NCc3cn4cc(C)ccc4n3)nc2c1` [Compound 19, 8-methoxy-N-({6-methylimidazo[1,2-a]pyridin-2-yl}methyl)-4-oxo-4H-pyrido[1,2-a]pyrimidine-2-carboxamide], under setting [2], the IC50 turned out to be 2600 nM.
On to `Cc1ccc2nc(CNC(=O)c3cc(=O)n4ccccc4n3)cn2c1` [Compound 15, N-({6-methylimidazo[1,2-a]pyridin-2-yl}methyl)-4-oxo-4H-pyrido[1,2-a]pyrimidine-2-carboxamide], for which the IC50 came to 536 nM under setting [2] and 520 nM (primary enzyme screen, inhibition of RNA methyltransferase activity, lower limit of the assay is IC50=5 nM, read-out: IC50).
As for `O=C(NCc1cn2cc(CNCc3ccn(CC(F)(F)F)n3)ccc2n1)c1cc(=O)n2ccccc2n1` [Compound 105, 4-oxo-N-({6-[({[1-(2,2,2-trifluoroethyl)-1H-pyrazol-3-yl]methyl}amino)methyl]imidazo[1,2-a]pyridin-2-yl}methyl)-4H-pyrido[1,2-a] pyrimidine-2-carboxamide], the IC50 under setting [1] is 1200 nM.
On to `O=C(NCc1cn2cc(CNCc3ccccc3F)ccc2n1)c1cc(=O)n2ccccc2n1` [Compound 77, N-{[6-({[(2-fluorophenyl)methyl]amino}methyl)imidazo [1,2-a]pyridin-2-yl]methyl}-4-oxo-4H-pyrido[1,2-a]pyrimidine-2-carboxamide], for which the 50% inhibitory concentration (IC50) under setting [1] turned out to be 84 nM.
